Patent publication US20150159169A1, “Plants Tolerant to HPPD Inhibitor Herbicides” (Bayer CropScience AG, priority 2009, published 2015)

Legend:
[1] = target: Kordia algicida HPPD "SEQ ID No. 5" (FMP27e) (Kordia algicida, UniProt A9DQF2); test: HPLC assay of HPPD in vitro kinetic properties; assay type: biochemical
Description: Km, Vmax, and kcat values for different HPPD enzyme preparations and Ki, K1=Kon, and K−1=Koff for different HPPD inhibitors were determined using a HPLC assay for measurements of HPPD activity. […] All assays were started by the addition of HPPD enzyme to the assay mixture and stopped at a series of times between 0 and 240 s by addition of 200 μl of the reaction mixture to reaction assay tubes containing 20 μl 10% perchloric acid. Precipitated protein was pelleted by a 5 minute centrifugation at 10,000 g.
For Km and Vmax value determinations the initial rates of the HPPD reaction at different substrate concentrations were determined from plots of HGA formed versus time and fitted to the Michaelis-Menten equation for unireactant enzymes using the ID Business Solutions Ltd. (idbs.com) XLfit software suite.

[2] = tested on: tobacco calli containing SEQ ID No. 11 (Arabidopsis thaliana HPPD); test: Rooting of calli on tembotrione media; assay type: cell-based, Nicotiana tabacum; settings: 6 to 12 weeks, calli with SEQ ID No. 11
Description: (§1) The leaf disks were co-cultivated for 2 days with Agrobacterium tumefaciens cells containing either the binary vector FMP27ebv or AtHPPDbv. Then the leaf disks were transferred to a media allowing the regeneration of shoots for 6 weeks on MS (Musharige and Skoog, (1962), Physiol Plant 15(3): 473-497) media supplemented with BAP (1 mg/mL; Benzylaminopurine), carbenicillin (250 mg/mL), cefotaxine (250 mg/mL), kanamycin (75 mg/mL) and tembotrione (10^−6 M)
(§2) Regenerated calli were transferred on media to induce the development of roots for 6 to 12 weeks: MS (1/2), supplemented with carbenicillin (250 mg/mL), cefotaxine (250 mg/mL), kanamycin (75 mg/mL), and tembotrione (10^−6 M).
(§3) Regenerated shoot calli from a cell transformed with a nucleic acid sequence encoding an HPPD comprising SEQ ID No. 11 (Arabidopsis thaliana) or SEQ ID No. 7 (Kordia algicida) were transferred to a media inducing root growth which media was further supplemented with the HPPD inhibitor tembotrione for 6 to 12 weeks.

[3] = tested on: tobacco calli containing SEQ ID No. 7 (Kordia algicida HPPD); test: Rooting of calli on tembotrione media; assay type: cell-based, Nicotiana tabacum; settings: 6 to 12 weeks, calli with SEQ ID No. 7
Description: as §1, §2, §3

[4] = tested on: T0 tobacco plants expressing the FMP27 HPPD (FMP27t); test: Greenhouse response of T0 tobacco plants to tembotrione; assay type: in vivo, Nicotiana tabacum; settings: 100 g AI/ha, two weeks after treatment
Description: As an example, rooted plants containing the T-DNA PromCaMV35S-OTP-HIS6-FMP27t-TerCaMV35S, were transferred to the greenhouse under standard growth conditions. Following a period of acclimation of two weeks, the T0 plants were treated with a mixture containing 100 g tembotrione/ha prepared from a WP20 (wettable powder 20%) formulation supplemented with ammonium sulfate and methyl ester raps oil. Two weeks after the treatment, the symptoms due to the application of the herbicides were evaluated. The plants were classified in four categories. The treated plants evaluated as “0” are looking like the untreated tobacco plants. The plants evaluated as “1” display temporarily light bleaching phenotype due to the application of the herbicides. The plants evaluated as “2” display permanent light to strong bleaching symptoms. Finally the plants evaluated as “3” are looking like wild type tobacco plants submitted to the same treatment.

[5] = tested on: tobacco plants containing FMP27t-h, PAT and 2mEPSPS (pFCO116); test: Glasshouse response of three-tolerance-gene tobacco to herbicides, injury classes; assay type: in vivo, Nicotiana tobacum; settings: 100 g AI/ha, 9 DAT
Description: A binary vector for tobacco transformation is, for example, constructed with the CaMV35 promoter driving the expression of the gene FMP27t-h (SEQ ID No. 15), with a codon usage optimized for the expression in dicotyledoneous plants and at its 5′extremity was added a sequence coding for an OTP, and further upstream a sequence TEV (Tobacco etch virus) to improve the stability of the mRNA in plants followed by the CaMV35S terminator. The nucleotide sequence of the gene FMP27t-h is given in SEQ ID No. 15. Additionally, the transformation vector also contains a PAT gene cassette in which the gene is driven by a CaVM35S promoter and followed by a CaMV35S terminator for glufosinate based selection during the transformation process and a 2mEPSPS gene cassette in which the gene is driven by an histone promoter from Arabidopsis to confer tolerance to the herbicide glyphosate to the transformed plants (see FIG. 3 H). The binary vector was called pFCO116. The above vector was used to transform leaf disc obtained from Nicotiana tobacum plants, according to Example 3.
Transgenic tobacco plants were transferred to the greenhouse and treated with glyphosate at a rate of 1121 g AI/ha. Seeds were produced from such tolerant tobacco plants and harvested. These seeds were put on soil to germinate in the glasshouse. Three to four weeks later, 50 plantlets per event were transferred to single pots. Two weeks later, plants of a size 4-6 cm were sprayed either with
[…] […] Non-transgenic tobacco plants were completely killed by treatment using one or more of the above herbicides.

Kordia algicida HPPD "SEQ ID No. 5" (FMP27e), sequence (A9DQF2 entry or part of it): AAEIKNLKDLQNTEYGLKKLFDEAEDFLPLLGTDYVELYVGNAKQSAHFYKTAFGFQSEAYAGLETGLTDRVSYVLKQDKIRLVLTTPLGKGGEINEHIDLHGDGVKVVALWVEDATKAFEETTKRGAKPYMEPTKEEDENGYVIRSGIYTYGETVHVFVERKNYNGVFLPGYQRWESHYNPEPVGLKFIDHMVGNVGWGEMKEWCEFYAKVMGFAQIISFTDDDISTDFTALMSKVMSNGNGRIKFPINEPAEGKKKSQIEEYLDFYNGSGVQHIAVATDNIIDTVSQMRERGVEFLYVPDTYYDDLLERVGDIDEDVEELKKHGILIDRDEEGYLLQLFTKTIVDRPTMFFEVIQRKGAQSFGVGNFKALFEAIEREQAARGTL

CS(=O)(=O)c1ccc(C(=O)C2C(=O)CCCC2=O)c(Cl)c1COCC(F)(F)F [Tembotrione, 2-[2-chloro-4-(methylsulfonyl)-3-[(2,2,2,-tri-fluoroethoxy)methyl]benzoyl]-1,3-cyclo-hexanedione]
Ki [1]: 33 µM
kon ([1]; read-out: k1 (=Kon)): 490 M⁻¹ s⁻¹
koff ([1]; read-out: k−1 (=Koff)): 0.016 s⁻¹
% Elongation & rooting on 10^−6M tembotrione [2]: 0%
% Elongation & rooting on 10^−6M tembotrione [3]: 62%
number of plants in category 0 (looking like the untreated tobacco plants) [4]: 11
number of plants in category 1 (temporarily light bleaching) [4]: 4
number of plants in category 2 (permanent light to strong bleaching) [4]: 10
number of plants in category 3 (like wild type plants submitted to the same treatment) [4]: 4
Class I, number of plants (no injuries) ([5]; line 639): 7
Class II, number of plants (injury: 10-40%) ([5]; line 639): 3
Class III, number of plants (injury: 41-100%) ([5]; line 639): 0
Class I, number of plants (no injuries) ([5]; line 714): 5
Class II, number of plants (injury: 10-40%) ([5]; line 714): 1
Class III, number of plants (injury: 41-100%) ([5]; line 714): 4
Class I, number of plants (no injuries) ([5]; line 717): 4
Class II, number of plants (injury: 10-40%) ([5]; line 717): 2
Class III, number of plants (injury: 41-100%) ([5]; line 717): 4
